Data from ChEMBL document CHEMBL1201862, “PubChem BioAssay data set” (2004).
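Following 48 hours of exposure in 96-well plates, responses at five concentrations were used to interpolate endpoints linearly. The concentration for 50% growth inhibition is given as GI50.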 Calls of active or inactive are those of the source. Rule as the data show it: active = GI50 up to about 1.1 µM and inactive = higher. Numbered stars: 1 amine (or outer) side, 2 acyl side, 3 side chain; on linkers, the order of the positions; unused ones are H or OH. Square brackets hold non-standard residues; d marks the D form. Peptide text beside a SMILES is read from it. X55 = CC[C@H](C)[C@H](OC(=O)[C@@H](C)[C@@H](CC)N[*:1])C(=O)[*:2]; X31 = C[C@H](N[*:1])C(=O)C(C)(C)C(=O)[*:2]; NMeY = CN[C@@H](Cc1ccc(O)cc1)C(=O)O; NMeL = CN[C@@H](CC(C)C)C(=O)O; NMeV = CN[C@H](C(=O)O)C(C)C

Assays:
Assay in all cases: growth of human tumour cells (NCI), 48 h
DMS-114 = system: DMS-114
DMS-273 = system: DMS-273
LXFL 529 = system: LXFL 529
M19-MEL = system: M19-MEL
SNB-78 = system: SNB-78
XF498 = system: XF498
HOP-18 = system: HOP-18
RXF 631 = system: RXF 631
Hs-578T = system: Hs-578T

Row | Structure (SMILES) | GI50 (DMS-114) | GI50 (DMS-273) | GI50 (LXFL 529) | GI50 (M19-MEL) | GI50 (SNB-78) | GI50 (XF498) | GI50 (HOP-18) | GI50 (RXF 631) | GI50 (Hs-578T)
1 | CCN(CC)c1ccc(C(=O)c2ccccc2C(=O)O)c(O)c1 | > 100 µM (inactive) | > 100 µM (inactive) | > 100 µM (inactive) | > 100 µM (inactive) | > 100 µM (inactive) | > 100 µM (inactive) | – | – | –
2 | CCCCOC(=O)CNC(=O)OCCCCC#CC#CCCCCOC(=O)NCC(=O)OCCCC | > 100 µM (inactive) | > 100 µM (inactive) | > 100 µM (inactive) | > 100 µM (inactive) | > 100 µM (inactive) | > 100 µM (inactive) | 69.8 µM (inactive) | – | –
3 | C/C=C/C1(C)/C(=N\O)C(C)(CCC)C(=O)N1O (stereo not drawn) | > 100 µM (inactive) | > 100 µM (inactive) | > 100 µM (inactive) | > 100 µM (inactive) | > 100 µM (inactive) | > 100 µM (inactive) | – | – | –
4 | N#C/C(=C\c1ccccc1)C(NO)Nc1ccccc1 (stereo not drawn) | – | > 100 µM (inactive) | 60.3 µM (inactive) | > 100 µM (inactive) | 83.2 µM (inactive) | – | > 100 µM (inactive) | – | –
5 | Nc1nc(Cl)cc(NCCCCCCNc2cc(Cl)nc(N)n2)n1 | – | > 100 µM (inactive) | 32.7 µM (inactive) | > 100 µM (inactive) | – | 30.6 µM (inactive) | > 100 µM (inactive) | > 100 µM (inactive) | –
6 | O=C(Nc1nccs1)c1cc(C2=CC=CC([N+](=O)[O-])C=C2)nc(S)n1 (stereo not drawn) | > 100 µM (inactive) | > 100 µM (inactive) | > 100 µM (inactive) | > 100 µM (inactive) | > 100 µM (inactive) | – | > 100 µM (inactive) | – | –
7 | O=C(CC(=O)C1CCOC1=O)C(=O)Nc1ccc(Cl)cc1Cl (stereo not drawn) | > 100 µM (inactive) | > 100 µM (inactive) | > 100 µM (inactive) | > 100 µM (inactive) | > 100 µM (inactive) | > 100 µM (inactive) | – | – | –
8 | COc1ccccc1/C=C1\CCC(CCN2CCOCC2)C1=O (stereo not drawn) | 42 µM (inactive) | > 100 µM (inactive) | > 100 µM (inactive) | > 100 µM (inactive) | > 100 µM (inactive) | > 100 µM (inactive) | > 100 µM (inactive) | 92.7 µM (inactive) | –
9 | CCCNCCCC(NC(C)=O)C(=O)NCc1ccccc1 (stereo not drawn) | > 100 µM (inactive) | > 100 µM (inactive) | > 100 µM (inactive) | > 100 µM (inactive) | > 100 µM (inactive) | > 100 µM (inactive) | – | > 100 µM (inactive) | –
10 | CCOP(=O)(OCC)OC1C=CC2CCC1C2 (stereo not drawn) | 87.9 µM (inactive) | 18.6 µM (inactive) | > 100 µM (inactive) | – | > 100 µM (inactive) | > 100 µM (inactive) | > 100 µM (inactive) | > 100 µM (inactive) | –
11 | NC(=O)N/N=C1/CCCC/C1=C\c1ccccc1 | > 100 µM (inactive) | > 100 µM (inactive) | > 100 µM (inactive) | > 100 µM (inactive) | > 100 µM (inactive) | – | > 100 µM (inactive) | > 100 µM (inactive) | –
12 | COc1cc2c(cc1OC)C(Cc1c3ccccc3cc3ccccc13)N(C)CC2 (stereo not drawn) | – | 26 µM (inactive) | – | 21.3 µM (inactive) | 23.9 µM (inactive) | 18.4 µM (inactive) | 16.5 µM (inactive) | – | –
13 | O=C(Nc1ccc(Cl)c(Cl)c1)C(=O)C(C(=O)c1ccccc1-c1ccccc1)C1OC(=O)c2ccccc21 (stereo not drawn) | 12.1 µM (inactive) | – | 8.81 µM (inactive) | 13.1 µM (inactive) | 10.4 µM (inactive) | 12.8 µM (inactive) | – | 14.3 µM (inactive) | –
14 | C#Cc1cc(CN(CC(=O)OC(C)(C)C)CC(=O)OC(C)(C)C)nc(CN(CC(=O)OC(C)(C)C)CC(=O)OC(C)(C)C)c1 | 3.26 µM (inactive) | 5.89 µM (inactive) | 3.46 µM (inactive) | 6.4 µM (inactive) | 6.14 µM (inactive) | 11.6 µM (inactive) | – | 11.9 µM (inactive) | –
15 | Cc1cc(NS(=O)(=O)c2ccc(NC(=O)c3cccc4c(Nc5ccc(S(=O)(=O)Nc6cc(C)on6)cc5)c5ccccc5nc34)cc2)no1 | 35.2 µM (inactive) | > 100 µM (inactive) | 24.7 µM (inactive) | 35.8 µM (inactive) | 35.1 µM (inactive) | 42.3 µM (inactive) | 19.4 µM (inactive) | – | –
16 | Cc1cc(C)nc(NS(=O)(=O)c2ccc(Nc3c4ccccc4nc4c(C(=O)Nc5ccc(S(=O)(=O)N=C(N)N)cc5)ccc(Cl)c34)cc2)n1 | 21.7 µM (inactive) | 32.1 µM (inactive) | 25.8 µM (inactive) | 26 µM (inactive) | 33.7 µM (inactive) | 24 µM (inactive) | 18.7 µM (inactive) | – | –
17 | Cc1cc2c(c3c1c1ccccc1n3C)C(=O)c1ccccc1C2=O | > 100 µM (inactive) | > 100 µM (inactive) | > 100 µM (inactive) | > 100 µM (inactive) | > 100 µM (inactive) | 60.1 µM (inactive) | – | > 100 µM (inactive) | –
18 | CC1=NN(C(=O)c2ccc(Cl)cc2)C(=O)/C1=C/c1ccco1 | > 100 µM (inactive) | – | > 100 µM (inactive) | > 100 µM (inactive) | 46.1 µM (inactive) | > 100 µM (inactive) | – | – | –
19 | COc1ccc(C2CCC(Cl)(OC)CC2C=O)cc1 (stereo not drawn) | 27.5 µM (inactive) | 53.7 µM (inactive) | > 100 µM (inactive) | 32.1 µM (inactive) | – | – | 68.9 µM (inactive) | – | –
20 | Cc1ccc(NC(=O)C2C(=O)C(=O)N(c3ccc(C)cc3)C2=O)cc1 (stereo not drawn) | > 100 µM (inactive) | – | > 100 µM (inactive) | > 100 µM (inactive) | > 100 µM (inactive) | – | > 100 µM (inactive) | – | –
21 | Cc1ccccc1CN1CC=c2ccccc2=N1 | > 100 µM (inactive) | > 100 µM (inactive) | – | > 100 µM (inactive) | > 100 µM (inactive) | 68.1 µM (inactive) | > 100 µM (inactive) | > 100 µM (inactive) | –
22 | CC(C)(C)N/N=N/c1cn(C2OC(CO)C(O)C2O)c(=O)[nH]c1=O (stereo not drawn) | 40.3 µM (inactive) | > 100 µM (inactive) | > 100 µM (inactive) | > 100 µM (inactive) | > 100 µM (inactive) | – | > 100 µM (inactive) | – | –
23 | COC(=O)C(CCC1(C)OCCO1)C(C)=O (stereo not drawn) | > 100 µM (inactive) | > 100 µM (inactive) | > 100 µM (inactive) | > 100 µM (inactive) | > 100 µM (inactive) | > 100 µM (inactive) | > 100 µM (inactive) | > 100 µM (inactive) | –
24 | CCCCCCCCCCCCCS(=O)(=O)O | > 100 µM (inactive) | – | > 100 µM (inactive) | > 100 µM (inactive) | > 100 µM (inactive) | > 100 µM (inactive) | 3.08 µM (inactive) | > 100 µM (inactive) | –
25 | O=C1C=CC(=CC=C2C=CN(CCCCCCCCCCC(=O)NCCCCCCCCCCCC(=O)O)C=C2)C=C1 | > 100 µM (inactive) | > 100 µM (inactive) | > 100 µM (inactive) | > 100 µM (inactive) | > 100 µM (inactive) | > 100 µM (inactive) | – | > 100 µM (inactive) | –
26 | CN1CCS(=O)(=O)NC(Cc2ccccc2)C(=O)N2CCCC2C1=O (stereo not drawn) | > 100 µM (inactive) | > 100 µM (inactive) | > 100 µM (inactive) | > 100 µM (inactive) | > 100 µM (inactive) | > 100 µM (inactive) | > 100 µM (inactive) | – | –
27 | COc1cc(CCc2ccc(OC(C)=O)cc2)cc(OC)c1OC | 55 µM (inactive) | > 100 µM (inactive) | > 100 µM (inactive) | > 100 µM (inactive) | > 100 µM (inactive) | – | > 100 µM (inactive) | – | –
28 | CC[C@H](C)[C@@H]1OC(=O)[C@@H](C)[C@@H](CC)NC(=O)[C@H](C)NC(=O)C(C)(C)C(=O)[C@H](C)NC(=O)[C@H](Cc2ccc(OC)cc2)N(C)C(=O)[C@H](C(C)C)N(C)C(=O)CNC(=O)[C@H](CC(C)C)N(C)C(=O)CNC1=O [DOLASTATIN 11] (cyclo(A[X55]G[NMeL]G[NMeV][NMeY](Me)[X31])) | < 0.0203 µM (active) | 0.01 µM (active) | < 0.0166 µM (active) | 0.344 µM (active) | 0.0514 µM (active) | 0.0248 µM (active) | < 0.0118 µM (active) | – | 0.258 µM (active)
29 | c1ccc2c(c1)Sc1ccccc1N2CC1CN2CCC1CC2 (stereo not drawn) [MEQUITAZINE] | – | – | – | – | – | – | – | – | 8.2 µM (inactive)
30 | C=C[C@H]1CN2CCc3c([nH]c4c([C@H]5CCCN5C)c(O)ccc34)[C@@H]2C[C@@H]1C[C@H]1c2[nH]c3ccccc3c2CCN1C [STRYCHNOPENTAMINE] | – | – | – | – | – | – | – | – | 1.78 µM (inactive)
